US12053475B2, “TRPC ion channel inhibitors for use in therapy” (UNIVERSITY OF LEEDS, priority 2017, dated 2024)

Columns and labels:
[1] = target: T1, TRPC5 (Homo sapiens, UniProt Q9UL62); parameters: host or cells: HEK239 (so in the source); conditions: Mol Pharmacol. 2014; cited from earlier work
T1 sequence (Q9UL62 1-973): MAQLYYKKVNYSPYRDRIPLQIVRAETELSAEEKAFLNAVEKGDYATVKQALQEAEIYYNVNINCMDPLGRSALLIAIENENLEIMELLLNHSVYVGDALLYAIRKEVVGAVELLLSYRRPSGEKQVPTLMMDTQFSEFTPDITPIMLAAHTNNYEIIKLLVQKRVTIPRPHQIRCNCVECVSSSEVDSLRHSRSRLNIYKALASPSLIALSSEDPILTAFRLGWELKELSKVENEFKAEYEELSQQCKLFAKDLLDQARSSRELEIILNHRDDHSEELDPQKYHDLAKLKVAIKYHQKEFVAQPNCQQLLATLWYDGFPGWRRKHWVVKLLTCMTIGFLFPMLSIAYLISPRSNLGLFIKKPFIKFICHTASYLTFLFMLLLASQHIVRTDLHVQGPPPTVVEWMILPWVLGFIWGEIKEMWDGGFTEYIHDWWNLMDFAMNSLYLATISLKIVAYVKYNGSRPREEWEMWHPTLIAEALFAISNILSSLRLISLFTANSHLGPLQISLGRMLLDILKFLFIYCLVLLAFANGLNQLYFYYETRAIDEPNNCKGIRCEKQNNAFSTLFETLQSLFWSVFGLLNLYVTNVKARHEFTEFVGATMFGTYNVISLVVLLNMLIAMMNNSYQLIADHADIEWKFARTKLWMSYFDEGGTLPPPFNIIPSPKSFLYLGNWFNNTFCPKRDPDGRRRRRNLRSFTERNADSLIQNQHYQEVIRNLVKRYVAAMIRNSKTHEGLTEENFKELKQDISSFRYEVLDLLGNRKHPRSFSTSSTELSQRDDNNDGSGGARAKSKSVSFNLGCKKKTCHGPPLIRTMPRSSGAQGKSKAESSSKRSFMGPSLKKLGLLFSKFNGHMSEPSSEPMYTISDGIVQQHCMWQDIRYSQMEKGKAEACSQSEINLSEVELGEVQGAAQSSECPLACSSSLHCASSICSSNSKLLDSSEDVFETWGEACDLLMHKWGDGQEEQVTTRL

[2] = target: T1, TRPC5; experiment: Intracellular Ca2+ measurement, HEK 293 cells expressing inducible human TRPC5, activated by (−)-Englerin A; type: cell-based; parameters: expressed in transfected cells; conditions: 10 μM DE2, 30 min pre-incubation; EA 100 nM; FIG. 12
Description: (§1) Cell culture Mouse stromal vascular fraction (SVF) cells from subcutaneous adipose tissue were isolated by mincing of the tissue followed by enzymatic digestion with 0.3 mg·mL^−1 Collagenase type II (Sigma), 0.3 mg·mL^−1 Collagenase type IV (Sigma), 2 mg·mL^−1 BSA (Sigma), 0.08 mg·mL^−1 DNase I (Sigma) and 0.04 mg·mL^−1 Dispase (Thermo Fisher Scientific) in serum free RPMI 1640 media (Gibco) for 45 min at 37° C. in 95% O2 and 5% CO2 environment. Isolated cells were centrifuged and processed through a 100 μm cell strainer. Following centrifugation, the cell pellet was reconstituted in full RPMI 1640 media containing 15% fetal calf serum and 1% penicillin-streptomycin (Gibco). Media was changed on the following day to remove non-adherent cells. […]
(§2) Intracellular Ca^2+ measurement HEK 293 cells containing stable incorporation of inducible TRPC4 or TRPC5 expression were seeded into 96-well clear-bottomed poly-D-lysine-coated black plates (Corning Life Sciences) at 90% confluence 24 hr before the experiment. […] The Fura-2-AM fluorescence was recorded using a 96-well fluorescence plate reader FlexStation II (Molecular Devices) at excitation wavelengths of 340 nm and 380 nm, and the emitted light was collected at 510 nm. […]

[3] = target: T2, human TRPC4 (Homo sapiens, UniProt Q9UBN4); experiment: Intracellular Ca2+ measurement, HEK 293 cells expressing inducible human TRPC4, activated by (−)-Englerin A; type: cell-based; conditions: 10 μM DE2, 30 min pre-incubation; EA 100 nM; FIG. 12
T2 construct: expressed in transfected cells
T2 sequence (Q9UBN4 1-977): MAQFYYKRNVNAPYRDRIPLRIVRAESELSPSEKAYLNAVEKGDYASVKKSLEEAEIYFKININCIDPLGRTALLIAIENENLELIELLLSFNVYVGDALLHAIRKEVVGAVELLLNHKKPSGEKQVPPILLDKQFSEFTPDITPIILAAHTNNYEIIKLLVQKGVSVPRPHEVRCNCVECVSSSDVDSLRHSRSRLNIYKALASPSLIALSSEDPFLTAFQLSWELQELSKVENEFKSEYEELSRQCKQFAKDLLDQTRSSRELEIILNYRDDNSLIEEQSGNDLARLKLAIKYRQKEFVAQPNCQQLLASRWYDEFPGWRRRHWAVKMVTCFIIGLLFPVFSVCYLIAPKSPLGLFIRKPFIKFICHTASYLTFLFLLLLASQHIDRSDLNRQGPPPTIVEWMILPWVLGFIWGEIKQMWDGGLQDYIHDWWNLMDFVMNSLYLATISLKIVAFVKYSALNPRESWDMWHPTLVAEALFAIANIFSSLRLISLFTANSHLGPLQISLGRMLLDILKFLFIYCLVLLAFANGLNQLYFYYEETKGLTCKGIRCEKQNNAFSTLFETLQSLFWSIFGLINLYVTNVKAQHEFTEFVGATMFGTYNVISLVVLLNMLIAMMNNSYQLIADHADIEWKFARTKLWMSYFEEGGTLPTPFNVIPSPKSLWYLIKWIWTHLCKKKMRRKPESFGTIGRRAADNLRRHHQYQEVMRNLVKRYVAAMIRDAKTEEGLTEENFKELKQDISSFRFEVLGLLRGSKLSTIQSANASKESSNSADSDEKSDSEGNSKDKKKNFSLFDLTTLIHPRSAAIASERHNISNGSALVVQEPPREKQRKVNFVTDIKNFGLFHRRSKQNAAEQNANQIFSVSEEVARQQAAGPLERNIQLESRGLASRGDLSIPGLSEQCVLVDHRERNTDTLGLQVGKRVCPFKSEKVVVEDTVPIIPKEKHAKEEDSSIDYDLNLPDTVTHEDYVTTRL
Description: as §1, §2

[4] = system: UCP1 and Cytochrome C; experiment: mRNA analysis of UCP1 and Cytochrome C expression in adipocytes (beiging markers); type: cell-based, mice; conditions: 10 μM DE2, 24 hr pre-incubation; vs DMSO; FIG. 14
Description: Quantitative RT-PCR analysis RNA from cell and tissue samples was obtained using TRIzol reagent (Thermo Fisher Scientific). 1 μg RNA was reverse-transcribed using High-Capacity cDNA Reverse Transcription Kit (Applied Biosystems) and RT-PCR analysis was performed using SYBR Select Masters Mix (Thermo Fisher Scientific) and LightCycler® 480 (Roche Life Science). The primers used are tabulated in Supplementary Table 1^34. Relative fold-change in expression was calculated using the comparative cycle method (2^−ΔΔCt) Mouse Gapdh gene was used as the reference.
To determine the influence of DE2 and C31 on expression of markers of white-to-brown adipocyte phenotypic switching, transcript accumulation of UCP1 and Cytochrome C was measured by mRNA analysis in adipocytes from subcutaneous white adipose tissue (n=4-5) of C4WT, C5WT, C4KO, and C5KO mice. Cells were pre-incubated with (24 hr) and maintained in 10 μM DE2 or 100 nM C31 where indicated. The vehicle control was DMSO.

[5] = system: adipocytes from subcutaneous white adipose tissue of mice; experiment: Respirometry (oxygen consumption) in adipocytes; type: cell-based; conditions: 10 μM DE2, 24 hr pre-incubation; vs DMSO; FIG. 13
Description: Protein preparation and immunoblotting Proteins were isolated from cells and tissues using radio-immunoprecipitation assay (RIPA) buffer containing (in mM) 150 NaCl, 20 Tris HCl, 1 EGTA, 1 EDTA, 1% NP-40, 0.1% sodium dodecyl sulfate (SDS) and 1% sodium deoxylate. Complete™ protease inhibitor (Roche Life Science) was added into RIPA fresh before use in accordance with the manufacturer's instructions. Immunoblotting was carried out under standard protocols with primary antibodies anti-UCP1 (1:500, ab23841; Abcam), Cytochrome C (1:4000, ab110325; Abcam), Akt (pan) (1:1000, 4691; Cell Signaling) and Phospho-Akt (Ser473) (1:500, 4060; Cell Signaling). […] The cells were inoculated into the OROBOROS Oxygraph-2k chambers and oxidative phosphorylation analyses were performed using the mitochondrial substrate-uncoupler-inhibitor-titration protocol consisting of: substrate activation using sodium pyruvate, inhibition of ATP synthase using oligomycin, uncoupling via sequential addition of FCCP to maximum oxygen flux, mitochondria complex I and III inhibition using Rotenone and Antimycin A. Traces were analyzed using DatLab 6 Software (OROBOROS), measuring for routine state respiration (routine), mitochondrial leak (leak), maximum uncoupling capacity of the electron transport system (ETS) and rotenone and antimycin A-inhibited residual oxygen consumption (ROX). […]

[6] = target: T1, TRPC5; parameters: host or cells: HEK239 (so in the source); conditions: HEK239 cells expressing TRPC5; Naylor et al.; cited from earlier work

In the case of Clc1ccc(Cn2c(CN3CCCC3)nc3ccccc32)cc1 [Clemizole, clemizole], the “inhibition of TRPC5” value [1] is given as “potent and selective inhibitor”.

With CCN(CC)Cc1nc2ccccc2n1Cc1ccc(Cl)cc1 [DE2, ({1-[(4-Chlorophenyl)methyl]-1H-benzimidazol-2-yl}methyl)diethylamine] the “inhibition of TRPC5 channels (intracellular Ca2+)” value [2] was “demonstrated inhibition”, the “inhibition of TRPC4 channels (intracellular Ca2+)” value [3] was “demonstrated inhibition” and the “adipocyte UCP1/Cytochrome C expression” value [4] was “increases”. The adipocyte mitochondrial respiration [5] was “increases”.

In the case of O=c1c(O)c(-c2ccccc2)oc2cc(O)cc(O)c12 [galangin], the “inhibition of TRPC5 ion channel function” value [6] is given as “inhibitors”.

For Oc1ccc(C=Cc2cc(O)cc(O)c2)cc1 [resveratrol], the “inhibition of TRPC5 ion channel function” value [6] is given as “inhibitors”.

For O=C1O[C@H]([C@@H](O)CO)C(O)=C1O [vitamin C], the “inhibition of TRPC5 ion channel function” value [6] is given as “inhibitors”.
